The species entered for series [1] is Rattus norvegicus. Put plainly: animal or person. Particulars: sc, read-out: ID50.
The species named for series [2] is Oryctolagus cuniculus. Put plainly: Inhibition of increase in potential difference caused by diarrhea inducing secretogogues determined in rabbit; 0 = inactive. In kind it is functional.
Series [3] deals with Rattus norvegicus. The class given is functional. The conditions noted are these: po, read-out: ID50 (the source's name).
A short description of series [4]: Partition coefficient (logP). In kind it is physicochemical. Particulars: octanol/water.
The species named for series [5] is Rattus norvegicus. Put plainly: Activity in the spontaneously hypertensive rats (SHR); inactive = post treatment BP did not change. In kind it is functional, organism-based.
The species entered for series [6] is Oryctolagus cuniculus. Kind of series: Inhibition of increase in potential difference caused by diarrhea inducing secretogogues determined in rabbit; + = moderate activity. The class given is functional, organism-based.
For series [7], the system named is Rattus norvegicus. The class given is functional. Particulars: sc, read-out: ID50 (the source's name).
For series [8], the species on record is Oryctolagus cuniculus. Put plainly: Inhibition of increase in potential difference caused by diarrhea inducing secretogogues determined in rabbit; ++ = active. In kind it is functional, organism-based.
The species entered for series [9] is Rattus norvegicus. Kind of series: Activity in the spontaneously hypertensive rats (SHR); active = post treatment BP changed. The class given is functional, organism-based.
The species named for series [10] is Rattus norvegicus. Put plainly: Activity in the spontaneously hypertensive rats (SHR); rats died due to exophthalmic side effects. The class given is functional, organism-based.
Series [11] is filed under the species Rattus norvegicus. Kind of series: Activity in the spontaneously hypertensive rats (SHR); rats died due to convulsive side effects. The class given is functional, organism-based.
The species named for series [12] is Oryctolagus cuniculus. Put plainly: IInhibition of increase in potential difference caused by diarrhea inducing secretogogues determined in rabbit; 0 = inactive. The class given is functional.

Molecules are shown by their SMILES. The source made the active and inactive calls.

`Cc1cccc(C)c1OC(C)C1=NCCS1` (centres undefined): the ED50 in series [1] is more than 100 mg/kg. Also, the Activity in [2] came out at 0.

The term logP denotes the decadic logarithm of the partition coefficient of the neutral form, usually between octanol and water. In the case of `CC(Oc1cccc2ccccc12)C1=NCCN1` (centres undefined), the ED50 came out at 16.1 mg/kg in series [3] and 17.9 mg/kg in [1]. Besides, in series [4] (read-out: logP), the log partition coefficient (logP) was found to be 4.35. Besides, the outcome in series [5] was inactive. The Activity in series [2] amounted to 0.

With `Cc1ccc(N)cc1OC(C)C1=NCCN1` (centres undefined), in [1], the ED50 is more than 100 mg/kg. The compound further returned an Activity in [2] of 0.

On to `Cc1cc(Br)c(N)c(C)c1OC(C)C1=NCCN1` (centres undefined), for which the ED50 in series [1] was more than 100 mg/kg.

For the compound `CCCc1cccc(CCC)c1OC(C)C1=NCCN1` (centres undefined), the ED50 in [1] is more than 100 mg/kg. Moreover, the Activity entry in series [6] is recorded as “moderate activity”.

`Cc1c(N)cccc1OC(C)C1=NCCN1.Cl.Cl` (centres undefined): the results for the ED50 in series [3] and in series [1] were 1.3 mg/kg and 5.6 mg/kg, respectively. In series [4], this compound returned a logP of 2.

For the compound `Cc1c(N)cccc1OC(C)C1=NCCN1` (stereo in doubt; 32) [listing 1 of 2 here], the logP in series [4] (read-out: logP) was found to be 2.

As for `Cc1c(N)cc(N)c(C)c1OC(C)C1=NCCN1` (centres undefined), in series [7], the ED50 is 32 mg/kg.

Take `CC(Oc1cccc2[nH]ccc12)C1=NCCN1` (centres undefined): the outcome in series [8] and in series [9] was Active. Also, the results for the ED50 in series [3] and in series [1] were 6.6 mg/kg and 5.7 mg/kg, respectively. For the same compound, the logP in series [4] (read-out: logP) is 3.12.

Turning to `CC(Oc1c(Cl)cccc1Cl)C1=NCCN1` (centres undefined) [LOFEXIDINE], the ED50 in series [1] is less than 2 mg/kg.

As to `Cc1cccc(C)c1OC(C)C1=NCCN1C` (centres undefined), in series [1], the ED50 stood at 32.4 mg/kg.

For the compound `Cc1cccc(C)c1SC(C)C1=NCCN1` (centres undefined), the ED50 in [1] is more than 100 mg/kg. The same compound came in with an Activity in [2] of 0.

Take `Cc1cccc(C)c1OC(CCO)C1=NCCN1` (centres undefined): in series [1], the ED50 amounted to 6.9 mg/kg. In addition, the Activity entry in series [6] is reported as “moderate activity”. Moreover, the log partition coefficient (logP) in series [4] (read-out: logP) came out at 2.89. In [5], the result was inactive.

With `Cc1ccc(N)c(C)c1OC(C)C1=NCCN1` (centres undefined), the result in [8] and in [9] was Active. Besides, the ED50 in series [1] came to 1 mg/kg. Further, the logP in series [4] (read-out: logP) worked out at 3.31.

Take `Cc1cccc(C)c1OC(C)C1=NC2CCCCC2N1` (centres undefined): in series [1], the ED50 was found to be 24.1 mg/kg.

`COc1cccc(OC(C)C2=NCCN2)c1C` (centres undefined): the ED50 in series [1] is more than 100 mg/kg.

Consider `Cc1cc(Br)cc(C)c1OC(C)C1=NCCN1` (centres undefined), for which the ED50 in series [1] is more than 100 mg/kg.

As to `Cc1cccc(C)c1OC(C)C1=NCCCN1` (centres undefined), the ED50 in series [1] is more than 100 mg/kg. This compound had an Activity in series [2] of 0.

As to `Cc1ncccc1OC(C)C1=NCCN1` (centres undefined), the ED50 in [7] is more than 100 mg/kg.

Regarding `Cc1cc([N+](=O)[O-])cc(C)c1OC(C)C1=NCCN1` (centres undefined), the ED50 in series [1] was more than 100 mg/kg. In series [2], the Activity is reported as 0.

For the compound `CC(Oc1cccc(N)c1)C1=NCCN1` (centres undefined), the ED50 in series [1] is more than 100 mg/kg. In series [2], the Activity is given as 0.

Regarding `COc1cccc(OC)c1OC(C)C1=NCCN1` (centres undefined), in series [1], the ED50 is more than 100 mg/kg.

In the case of `Cc1c(N)cccc1OC(CCO)C1=NCCN1` (centres undefined), the Activity entry in series [10] is “rats died due to exophthalmic side effects”. Also, the ED50 in series [3] came to 1.3 mg/kg; in series [1], 1.2 mg/kg. Also, in series [4] (read-out: logP), the logP worked out at 1.2.

As for `CC(Oc1cncc2ccccc12)C1=NCCN1` (centres undefined), the ED50 in [1] was determined as 21.7 mg/kg.

For `Cc1c(N)cccc1OC(C)C1=NCCN1` (single isomer, unassigned), the outcome in series [9] was Active.

For `Clc1cccc(Cl)c1NC1=NCCN1` [CLONIDINE], in [1], the ED50 amounted to 0.3 mg/kg.

Regarding `Cc1cc(C)c(OC(C)C2=NCCN2)cc1N` (centres undefined), in series [1], the ED50 is 7.8 mg/kg. Moreover, the log partition coefficient (logP) in series [4] (read-out: logP) was determined as 3.01. The same compound displayed an Activity in series [2] of 0.

As to `Cc1cc(C)c(OC(C)C2=NCCN2)c(C)c1` (centres undefined), the ED50 in series [1] was determined as 11.1 mg/kg. Besides, the logP in series [4] (read-out: logP) was found to be 5. In series [5], the outcome was inactive. This compound yielded an Activity in series [2] of 0.

As to `CCOC(=O)Nc1ccc(C)c(OC(C)C2=NCCN2)c1C` (centres undefined), in [9], the result was Active. Moreover, the ED50 in [1] amounted to 3 mg/kg. In addition, in series [6], the Activity result was “moderate activity”. Further, in series [4] (read-out: logP), the logP came to 4.4.

As for `Cc1cccc(C)c1CC(C)C1=NCCN1` (centres undefined), the ED50 in series [1] is more than 100 mg/kg. Moreover, in series [2], the Activity is 0.

`CC(=O)Nc1cccc(OC(C)C2=NCCN2)c1C` (centres undefined): the ED50 in series [1] was determined as 7 mg/kg. Further, the logP in series [4] (read-out: logP) amounted to 2.43. Moreover, the Activity in [2] is given as 0.

As for `Cc1c(O)cccc1OC(C)C1=NCCN1` (centres undefined), in series [1], the ED50 was 17.2 mg/kg. In series [6], the Activity result is listed as “moderate activity”. Moreover, the logP in series [4] (read-out: logP) was determined as 3.21. For the same compound, the result in [5] was inactive.

Take `Cc1c(N)cccc1OC(C)C1=NCCN1` (stereo in doubt; 32) [listing 2 of 2 here]: the result in series [9] was Active.

Turning to `Cc1cc2[nH]cnc2c(C)c1OC(C)C1=NCCN1` (centres undefined), in series [1], the ED50 was more than 100 mg/kg. This compound had an Activity in series [2] of 0.

Turning to `CCOC(=O)Nc1cccc(OC(C)C2=NCCN2)c1C` (centres undefined), in [9], the outcome was Active. For the same compound, the ED50 in series [3] was found to be 4.6 mg/kg; in series [1] it was 9.5 mg/kg. For the same compound, the lipophilicity (logP) in series [4] (read-out: logP) stood at 3.27. In series [2], this compound showed an Activity of 0.

Take `CC(Oc1cccn2ncnc12)C1=NCCN1.CO` (centres undefined): in [1], the ED50 was 26.5 mg/kg.

As to `CC(Oc1ccc2ccccc2c1)C1=NCCN1` (centres undefined), the ED50 in series [1] was more than 100 mg/kg. The compound further displayed an Activity in series [2] of 0.

Consider `Cc1cccc(C)c1OC(C)(C)C1=NCCN1`, for which the result in [8] was Active. Besides, the ED50 in series [1] was determined as 3.7 mg/kg. The logP in series [4] (read-out: logP) amounted to 4.66.

In the case of `CCC(Oc1cccc(N)c1C)C1=NCCN1` (centres undefined), the outcome in [9] was Active. Further, the ED50 in series [3] stood at 5.2 mg/kg; in series [1], 4.5 mg/kg. Besides, the lipophilicity (logP) in [4] (read-out: logP) was 3.19.

In the case of `Cc1cc(C(=O)O)cc(C)c1OC(C)C1=NCCN1` (centres undefined), in series [1], the ED50 was more than 100 mg/kg. This compound also came in with an Activity in series [2] of 0.

As to `Cc1c(OCc2ccccc2)cccc1OC(C)C1=NCCN1` (centres undefined), the ED50 in series [1] is more than 100 mg/kg. Besides, in [6], the Activity entry was “moderate activity”.

As to `CCc1ccccc1OC(C)C1=NCCN1` (centres undefined), the ED50 in series [1] amounted to 22.9 mg/kg. For the same compound, the Activity result in series [6] is listed as “moderate activity”. In addition, the logP in series [4] (read-out: logP) was 4.23.

For `Cc1c(OC(C)C2=NCCN2)cccc1N(C)C` (centres undefined), in [1], the ED50 was 4 mg/kg. The log partition coefficient (logP) in series [4] (read-out: logP) came out at 4. The compound also showed an Activity in [2] of 0.

For the compound `Cc1ccc2[nH]ccc2c1OC(C)C1=NCCN1.ClCCl` (centres undefined), the ED50 was 1.2 mg/kg in series [3] and 1.6 mg/kg in series [1]. The Activity result in series [11] is on record as “rats died due to convulsive side effects”. Also, the logP in [4] (read-out: logP) was found to be 3.77.

Consider `Cc1cccc(C)c1OC(C)c1nc2ccccc2[nH]1` (centres undefined), for which the ED50 in [1] is more than 100 mg/kg.

Regarding `CCC(Oc1c(C)cccc1C)C1=NCCN1` (centres undefined), in series [1], the ED50 amounted to 5.2 mg/kg. Besides, the logP in series [4] (read-out: logP) turned out to be 4.88. Also, the Activity in series [2] amounted to 0.

With `Cc1ccc2ccccc2c1OC(C)C1=NCCN1` (centres undefined), the ED50 in series [1] is more than 100 mg/kg. In series [2], this compound registered an Activity of 0.

In the case of `Cc1cccc(C)c1NC(C)C1=NCCN1` (centres undefined), the ED50 in series [1] was more than 100 mg/kg. In addition, the Activity in [2] was determined as 0.

As to `CCc1cccc(CC)c1OC(C)C1=NCCN1` (centres undefined), the result in series [8] was Active. Further, the ED50 in series [1] was determined as 2.3 mg/kg. Besides, in series [4] (read-out: logP), the log partition coefficient (logP) turned out to be 5.41. In series [5], the outcome was inactive.

For the compound `C=CCc1cccc(CC=C)c1OC(C)C1=NCCN1` (centres undefined), the ED50 in series [1] was more than 100 mg/kg.

On to `Cc1c(N)cccc1OC(C)C1=NCCN1` (centres undefined), for which, in series [8], the result was Active.

Regarding `Cc1cc(C(=O)OC(C)(C)C)cc(C)c1OC(C)C1=NCCN1` (centres undefined), the ED50 in series [1] is more than 100 mg/kg.

Regarding `Cc1cccc(C)c1OC(C)C1=NCCN1` (centres undefined), the result in series [8] was Active. Moreover, the values for the ED50 in [3] and in [1] were 2.7 mg/kg and 1.7 mg/kg, respectively. In series [4] (read-out: logP), the log partition coefficient (logP) was 4.39.

As for `Cc1cccc(C)c1OCC1=NCCN1`, the ED50 in series [1] was more than 100 mg/kg. For the same compound, in series [6], the Activity result is reported as “moderate activity”.

The compound `Cc1cc(N)cc(C)c1OC(C)C1=NCCN1` (centres undefined) yielded an Activity in [12] of 0. Also, in series [1], the ED50 was more than 100 mg/kg.

`Cc1ccc(OC(C)C2=NCCN2)c(C)c1` (centres undefined): the ED50 in series [1] turned out to be 24.1 mg/kg. The log partition coefficient (logP) in series [4] (read-out: logP) came out at 4.35.
